“And” between values parts separate entries of the source, which are not always exact repeats. Equal values may be shown once.
What was measured:
Test in all cases: Cell line-derived xenograft, tumour growth
Format in all cases: in vivo, mouse
OVCAR3 xenografts = settings: RP-6306 10mg/kg BIDx21 PO, 10 mg/kg
Method: (§1) HCC1569, OVCAR3 and SUM149PT cells were implanted at 5 × 10^6 cells per mouse into the right flanks of female CB17-SCID, SCID-beige and NOD-SCID mice respectively (5–7 weeks old; Charles River), in 1:1 Matrigel:medium (Matrigel Corning, cat. no. CB35248).
(§2) Gemcitabine was administered once weekly intraperitoneally in saline. Animals were monitored for tumour volume, clinical signs and body weight three times per week. Tumour volume was measured using a digital calliper and calculated using the formula 0.52 × L × W^2, where L is length and W is width. Response to treatment was evaluated for tumour growth inhibition (% TGI). […] TV is tumour volume and subscripts indicate treatment group and time of sampling. According to NIACC and IACUC approved animal protocols, mice were euthanized as soon as their tumour volume exceeded 2,000 mm^3. Change in body weight (BW) was calculated using the formula: %BW change = (BWlast − BWday0/BWday0) × 100. BW change was calculated based on individual body weight changes relative to day 0. Statistical significance relative to vehicle control or other test groups was established by one-way ANOVA followed by Fisher’s least significant difference test for multiple groups and unpaired t-test for two group comparisons (GraphPad Prism v9.0). Investigators were not blinded during data collection and analysis.

SUM149PT xenografts = settings: for SUM149PT tumor volume: individual animals
Method: as §1, §2

HCC1569 xenografts = settings: for HCC1569 tumor volume (mm3): RP-6306 10mg/kg BIDx21 PO, 10 mg/kg
Method: as §1, §2

With `Cc1cc2c(C(N)=O)c(N)n(-c3c(C)ccc(O)c3C)c2nc1C` [RP-6306] the “Tumor growth of OVCAR3 xenografts” value (OVCAR3 xenografts; time 3, individual animals) was 134.061 and 254.977 and 153.973 and 150.557 and 142.138 and 171.965, the “Tumor growth of OVCAR3 xenografts” value (OVCAR3 xenografts; time 7, individual animals) was 207.126 and 414.763 and 141.911 and 128.933 and 209.296 and 304.274 and the “Tumor growth of OVCAR3 xenografts” value (OVCAR3 xenografts; time 9, individual animals) was 275.319 and 481.883 and 339.368 and 220.275 and 259.136 and 408.564. The “Tumor growth of OVCAR3 xenografts” value (OVCAR3 xenografts; time 11, individual animals) was 348.584 and 434.325 and 289.198 and 286.305 and 290.804 and 479.483, the “Tumor growth of OVCAR3 xenografts” value (OVCAR3 xenografts; time 14, individual animals) was 264.535 and 489.984 and 333.689 and 291.8 and 399.88 and 470.597 and the “Tumor growth of OVCAR3 xenografts” value (OVCAR3 xenografts; time 16, individual animals) was 261.606 and 732.159 and 343.34 and 303.719 and 343.785 and 520.762. For the same molecule, the “Tumor growth of OVCAR3 xenografts” value (OVCAR3 xenografts; time 18, individual animals) was 315.63 and 715.49 and 417.253 and 422.43 and 384.747 and 642.048, the “Tumor growth of OVCAR3 xenografts” value (OVCAR3 xenografts; time 21, individual animals) was 389.822 and 787.163 and 367.94 and 374.887 and 424.911 and 735.612 and the “Tumor growth of OVCAR3 xenografts” value (OVCAR3 xenografts; time 23, individual animals) was 553.997 and 859.452 and 411.464 and 417.694 and 499.446 and 652.984. For the same molecule, the “Tumor growth of OVCAR3 xenografts” value (OVCAR3 xenografts; time 25, individual animals) was 611.979 and 653.804 and 426.428 and 358.669 and 520.476 and 759.909, the “Tumor growth of OVCAR3 xenografts” value (OVCAR3 xenografts; time 28, individual animals) was 646.4 and 991.678 and 686.539 and 634.456 and 624.299 and 999.875 and the “Tumor growth of OVCAR3 xenografts” value (OVCAR3 xenografts; time 31, individual animals) was 860.116 and 950.899 and 761.681 and 646.275 and 698.065 and 912.856. For the same molecule, the SUM149PT tumor volume (SUM149PT xenografts; 7.5mg/kg (BID), time 0) was 128.53 mm3 and 158.461 mm3 and 194.385 mm3 and 113.241 mm3 and 94.8869 mm3 and 123.786 mm3 and 160.627 mm3 and 128.794 mm3, the SUM149PT tumor volume (SUM149PT xenografts; 7.5mg/kg (BID), time 5) was 282.958 mm3 and 329.646 mm3 and 394.603 mm3 and 184.728 mm3 and 253.646 mm3 and 523.922 mm3 and 343.582 mm3 and 244.873 mm3 and the SUM149PT tumor volume (SUM149PT xenografts; 7.5mg/kg (BID), time 7) was 184.004 mm3 and 435.521 mm3 and 380.303 mm3 and 214.723 mm3 and 251.389 mm3 and 646.583 mm3 and 622.12 mm3 and 205.263 mm3. For the same molecule, the SUM149PT tumor volume (SUM149PT xenografts; 7.5mg/kg (BID), time 11) was 285.576 mm3 and 518.693 mm3 and 572.196 mm3 and 240.461 mm3, the SUM149PT tumor volume (SUM149PT xenografts; 7.5mg/kg (BID), time 15) was 449 mm3 and 1148.55 mm3 and 723.316 mm3 and 333.684 mm3 and 537.3 mm3 and 982.564 mm3 and 889.38 mm3 and 497.927 mm3 and the SUM149PT tumor volume (SUM149PT xenografts; 7.5mg/kg (BID), time 18) was 423.69 mm3 and 1265.81 mm3 and 820.21 mm3 and 488.44 mm3 and 791.05 mm3 and 1081.34 mm3 and 1105.05 mm3 and 832.81 mm3. The SUM149PT tumor volume (SUM149PT xenografts; 7.5mg/kg (BID), time 21) was 405.011 mm3 and 1742.84 mm3 and 831.826 mm3 and 647.553 mm3 and 836.139 mm3 and 1403.18 mm3 and 1450.04 mm3 and 874.046 mm3, the SUM149PT tumor volume (SUM149PT xenografts; 20mg/kg (BID), time 0) was 125.205 mm3 and 102.765 mm3 and 108.222 mm3 and 157.328 mm3 and 201.357 mm3 and 118.893 mm3 and 154.908 mm3 and 115.864 mm3 and the SUM149PT tumor volume (SUM149PT xenografts; 20mg/kg (BID), time 5) was 249.365 mm3 and 198.432 mm3 and 314.058 mm3 and 285.263 mm3 and 435.33 mm3 and 168.29 mm3 and 343.598 mm3 and 222.954 mm3. For the same molecule, the SUM149PT tumor volume (SUM149PT xenografts; 20mg/kg (BID), time 7) was 397.396 mm3 and 246.656 mm3 and 398.813 mm3 and 350.54 mm3 and 481.673 mm3 and 400.651 mm3 and 425.647 mm3 and 351.189 mm3, the SUM149PT tumor volume (SUM149PT xenografts; 20mg/kg (BID), time 15) was 512.143 mm3 and 369.089 mm3 and 528.672 mm3 and 600.207 mm3 and 956.341 mm3 and 637.252 mm3 and 626.041 mm3 and 367.887 mm3 and the SUM149PT tumor volume (SUM149PT xenografts; 20mg/kg (BID), time 18) was 924.69 mm3 and 459.85 mm3 and 636.04 mm3 and 576.09 mm3 and 960.34 mm3 and 701.15 mm3 and 544.89 mm3 and 433.04 mm3. For the same molecule, the SUM149PT tumor volume (SUM149PT xenografts; 20mg/kg (BID), time 21) was 1226.11 mm3 and 460.254 mm3 and 666.307 mm3 and 494.758 mm3 and 1309.13 mm3 and 521.325 mm3 and 695.549 mm3 and 459.62 mm3, the “effect on tumour growth” value (SUM149PT xenografts; SUM149PT-derived tumours, oral twice daily) was “no effect” and the “Tumor growth of HCC1569 xenografts” value (HCC1569 xenografts; 1mg/kg BIDx28, day 14, individual animals) was 191.239 and 289.596 and 258.017 and 212.582 and 160.124 and 252.834 and 540.661. For the same molecule, the “Tumor growth of HCC1569 xenografts” value (HCC1569 xenografts; 1mg/kg BIDx28, day 16, individual animals) was 203.25 and 370.415 and 253.093 and 292.763 and 224.444 and 298.277 and 549.744, the “Tumor growth of HCC1569 xenografts” value (HCC1569 xenografts; 1mg/kg BIDx28, day 18, individual animals) was 379.584 and 322.163 and 277.465 and 327.833 and 196.863 and 320.478 and 833.024 and the “Tumor growth of HCC1569 xenografts” value (HCC1569 xenografts; 1mg/kg BIDx28, day 21, individual animals) was 379.861 and 560.633 and 367.361 and 394.787 and 338.48 and 494.575 and 617.016. For the same molecule, the “Tumor growth of HCC1569 xenografts” value (HCC1569 xenografts; 1mg/kg BIDx28, day 23, individual animals) was 312.94 and 692.548 and 491.728 and 408.008 and 321.756 and 475.58, the “Tumor growth of HCC1569 xenografts” value (HCC1569 xenografts; 15mg/kg BIDx28, day 14, individual animals) was 191.062 and 182.378 and 127.117 and 150.626 and 95.412 and 183.413 and the “Tumor growth of HCC1569 xenografts” value (HCC1569 xenografts; 15mg/kg BIDx28, day 16, individual animals) was 207.154 and 222.892 and 159.993 and 181.056 and 178.071 and 113.287. For the same molecule, the “Tumor growth of HCC1569 xenografts” value (HCC1569 xenografts; 15mg/kg BIDx28, day 18, individual animals) was 198.426 and 279.972 and 217.623 and 254.922 and 271.258 and 152.085, the “Tumor growth of HCC1569 xenografts” value (HCC1569 xenografts; 15mg/kg BIDx28, day 21, individual animals) was 266.708 and 208.968 and 196.481 and 204.804 and 176.06 and 179.669 and the “Tumor growth of HCC1569 xenografts” value (HCC1569 xenografts; 15mg/kg BIDx28, day 23, individual animals) was 226.054 and 284.428. For the same molecule, the tumour growth inhibition (HCC1569 xenografts; HCC1569, 20 mg kg-1 as printed, oral twice daily) was 79%, the “HCC1569 tumor volume (mm3)” value (HCC1569 xenografts; time 0, individual mice) was 143.384 mm3 and 89.3376 mm3 and 141.742 mm3 and 123.182 mm3 and 96.3389 mm3 and 123.869 mm3 and 122.521 mm3 and the “HCC1569 tumor volume (mm3)” value (HCC1569 xenografts; time 3, individual mice) was 151.224 mm3 and 134.055 mm3 and 195.904 mm3 and 181.64 mm3 and 173.949 mm3 and 110.314 mm3 and 127.036 mm3. The “HCC1569 tumor volume (mm3)” value (HCC1569 xenografts; time 7, individual mice) was 194.19 mm3 and 146.489 mm3 and 228.819 mm3 and 136.041 mm3 and 214.686 mm3 and 190.221 mm3 and 179.52 mm3, the “HCC1569 tumor volume (mm3)” value (HCC1569 xenografts; time 9, individual mice) was 177.508 mm3 and 181.977 mm3 and 200.053 mm3 and 165.034 mm3 and 214.868 mm3 and 205.378 mm3 and 244.317 mm3 and the “HCC1569 tumor volume (mm3)” value (HCC1569 xenografts; time 11, individual mice) was 141.464 mm3 and 190.593 mm3 and 332.916 mm3 and 175.879 mm3 and 323.601 mm3 and 208.091 mm3 and 250.578 mm3. For the same molecule, the “HCC1569 tumor volume (mm3)” value (HCC1569 xenografts; time 14, individual mice) was 172.453 mm3 and 155.799 mm3 and 376.888 mm3 and 210.18 mm3 and 243.948 mm3 and 160.137 mm3 and 298.138 mm3, the “HCC1569 tumor volume (mm3)” value (HCC1569 xenografts; time 16, individual mice) was 206.676 mm3 and 165.902 mm3 and 308.725 mm3 and 150.448 mm3 and 197.481 mm3 and 132.472 mm3 and 301.047 mm3 and the “HCC1569 tumor volume (mm3)” value (HCC1569 xenografts; time 18, individual mice) was 175.334 mm3 and 175.033 mm3 and 387.882 mm3 and 171.976 mm3 and 198.571 mm3 and 147.154 mm3 and 307.44 mm3. For the same molecule, the “HCC1569 tumor volume (mm3)” value (HCC1569 xenografts; time 21, individual mice) was 154.786 mm3 and 227.424 mm3 and 245.314 mm3 and 170.287 mm3 and 184.161 mm3 and 154.075 mm3 and 304.784 mm3 and the “HCC1569 tumor volume (mm3)” value (HCC1569 xenografts; time 23, individual mice) was 116.641 mm3 and 200.907 mm3 and 277.859 mm3 and 144.925 mm3 and 172.897 mm3 and 132.896 mm3 and 320.812 mm3.
